The target in assay [1] is T1, Acs1 (acetyl CoA synthetase) (Saccharomyces cerevisiae, UniProt Q01574).
T1 construct: purified S. cerevisiae acetyl CoA synthetase (Sigma, A1765)
The assay is described as follows: hydroxylamine-coupled acetyl CoA synthetase assay (acethydroxamic acid, OD540). The assay is classed as biochemical.

Assay [2] deals with T1, Acs1 (acetyl CoA synthetase). Kind of assay: hydroxylamine-coupled acetyl CoA synthetase assay; […] inhibition at […]. Type of assay: biochemical.

T1 sequence (Q01574 whole entry): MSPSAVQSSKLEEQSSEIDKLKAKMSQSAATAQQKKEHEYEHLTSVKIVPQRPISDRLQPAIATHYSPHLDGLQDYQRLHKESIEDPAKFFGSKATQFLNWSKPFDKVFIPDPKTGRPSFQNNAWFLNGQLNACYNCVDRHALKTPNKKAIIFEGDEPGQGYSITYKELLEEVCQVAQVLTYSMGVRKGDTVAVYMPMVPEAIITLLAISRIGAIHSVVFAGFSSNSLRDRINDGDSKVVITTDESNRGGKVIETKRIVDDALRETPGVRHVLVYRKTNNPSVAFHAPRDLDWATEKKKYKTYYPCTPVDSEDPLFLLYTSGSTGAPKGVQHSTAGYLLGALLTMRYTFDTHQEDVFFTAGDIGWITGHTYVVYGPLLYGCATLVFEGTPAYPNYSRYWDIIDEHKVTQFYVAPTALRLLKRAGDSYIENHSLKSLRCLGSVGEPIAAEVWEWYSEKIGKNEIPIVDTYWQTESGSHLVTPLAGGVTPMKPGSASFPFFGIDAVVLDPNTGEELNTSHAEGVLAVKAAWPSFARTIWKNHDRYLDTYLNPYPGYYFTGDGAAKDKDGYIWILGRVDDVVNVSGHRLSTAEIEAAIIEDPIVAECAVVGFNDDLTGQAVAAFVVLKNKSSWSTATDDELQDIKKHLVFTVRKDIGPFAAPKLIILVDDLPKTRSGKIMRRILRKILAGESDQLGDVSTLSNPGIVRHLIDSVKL

For `NCC(=O)Nc1ccc(-n2nc(C(F)(F)F)cc2-c2ccc3c(ccc4ccccc43)c2)cc1` [AR-12], the concentration for half-maximal inhibition (IC50) – broadly, the concentration that gives 50% inhibition – in assay [1] was approximately 18 µM.

Regarding `CC(C)c1ccc(CC(=O)N2CCN(c3ccc(C#N)nn3)CC2)cc1` [PZ-2891], the inhibition – broadly, the drop in the measured response relative to a control, in per cent – at 18.8 µM in assay [2] was 32.7%.

The values above are taken from PMC11266677, “Vitamin B5 metabolism is essential for vacuolar and mitochondrial functions and drug detoxification in fungi” (Communications Biology, 2024).
